Values of other authors in patent US6436414B1, “Active ingredient combinations or adducts of biotin and/or biotin derivatives and cyclodextrins and use of such active ingredient combinations in cosmetic preparations” (Beiersdorf AG, priority 1999, dated 2002).

Conditions: according to the literature

## O=C(O)CCCC[C@@H]1SC[C@@H]2NC(=O)N[C@@H]21 [biotin, D-cis-hexahydro-2-oxothieno[3,4-d]imidazole-4-valeric acid]
  solubility limit of biotin in aqueous solution: about 0.04%
